Source: patent US4221803A, “Substituted dibenzyl ethers and pharmaceutical compositions containing said ethers for the treatment of infections” (Recordati, S.A., priority 1979, dated 1980)
Converted amounts (≈) assume the structure as drawn. Where two headings read alike, the source gives them in different places.

Columns and labels:
[1] = Acute toxicity per os in the mouse; details: in vivo, po
Excerpt: In Table I are reported the acute toxicity values (LD50) of the compounds I and of both the comparison substances. Toxicity, given in mg/Kg, has been evaluated per os in the mouse by conventional methods.

[2] = test system: C.Albicans 1040; assay: Antimycotic activity, two-fold serial broth dilution; assay type: cell-based; details: Candida albicans, Sabouraud liquid pH 5.7, 37° C., 48 hours
Experimental: (§1) In Table II are reported the minimal inhibent concentrations (MIC) of the compounds I and of both the comparison substances. For MIC, the minimal concentration is intended, i.e., one which is able to inhibit the growth of several fungi and yeasts. The MIC values have been determined according to the usual two-fold serial broth dilution technique.
(§2) Medium: Sabouraud liquid pH 5.7 (5 ml per tube)
(§3) Inoculum: Yeasts were grown in Sabouraud liquid for 24 hours (Cryptococcus neoformans for 2 days). Cells were collected by centrifugation at 6500 rpm and again suspended in physiological solution so as to have a suspension giving on a Coleman Jr II spectrophotometer, at a wavelength of 650 nm, a 50% transparence (T). 0.1 ml of this suspension constituted the inoculum for 5 ml.
(§4) Temperature and incubation time: 37° C. for 48 hours.

[3] = test system: C.Albicans 1041; assay: as above; assay type: cell-based; details: Candida albicans, Sabouraud liquid pH 5.7, 37° C., 48 hours
Experimental: as §1, §2, §3, §4

[4] = test system: C.Albicans Grunenthal; assay: as above; assay type: cell-based; details: Candida albicans, Sabouraud liquid pH 5.7, 37° C., 48 hours
Experimental: as §1, §2, §3, §4

[5] = test system: C.Albicans R; assay: as above; assay type: cell-based; details: Candida albicans, Sabouraud liquid pH 5.7, 37° C., 48 hours
Experimental: as §1, §2, §3, §4

[6] = test system: C.Neoformans; assay: as above; assay type: cell-based; details: Cryptococcus neoformans
Experimental: as §1, §2, §3, §4

[7] = test system: A.Niger; assay: as above; assay type: cell-based; details: Aspergillus niger, 168 h, Sabouraud liquid pH 5.7, 25° C., 7 days, inoculum 1/10 dilution
Experimental: as §1, §2
(§5) For Aspergillus niger, after filtration, a 1/10 dilution in physiological solution was prepared. 0.1 ml of this dilution constituted the inoculum for 5 ml.
(§6) Temperature and incubation time: 25° C. for 7 days.

[8] = test system: E.Floccosum; assay: as above; assay type: cell-based; details: Epidermophyton floccosum, 168 h, Sabouraud liquid pH 5.7, 25° C., 7 days
Experimental: as §1, §2, §5, §6

[9] = test system: M.Canis 28; assay: as above; assay type: cell-based; details: Microsporum canis, 168 h, Sabouraud liquid pH 5.7, 25° C., 7 days
Experimental: as §1, §2, §5, §6

[10] = test system: P.Chrysogenum; assay: as above; assay type: cell-based; details: Penicillium chrysogenum, 168 h, Sabouraud liquid pH 5.7, 25° C., 7 days
Experimental: as §1, §2, §5, §6

[11] = test system: T.Mentagroph. 10148; assay: as above; assay type: cell-based; details: 168 h
Experimental: as §1, §2, §5, §6

[12] = test system: T.Mentagroph. 2538; assay: as above; assay type: cell-based; details: 168 h, Sabouraud liquid pH 5.7, 25° C., 7 days
Experimental: as §1, §2, §5, §6

[13] = test system: T.Mentagroph. 5865; assay: as above; assay type: cell-based; details: 168 h, Sabouraud liquid pH 5.7, 25° C., 7 days
Experimental: as §1, §2, §5, §6

[14] = test system: T.Rubrum 2121; assay: as above; assay type: cell-based
Experimental: as §1, §2, §5, §6

[15] = test system: T.Verrucosum; assay: as above; assay type: cell-based; details: Trichophyton verrucosum, 168 h
Experimental: as §1, §2, §5, §6

[16] = test system: B.subtilis; assay: Antibacterial activity, two-fold serial broth dilution; assay type: cell-based; details: Bacillus subtilis
Experimental: (§7) The MIC values of the products under examination and of both comparison substances, referred to a certain number of gram positive bacteria and determined according to the conventional two-fold serial broth dilution technique, are reported in Table III.
(§8) Medium: Tryptic soy broth pH 7.3 (5 ml per tube)
(§9) Inoculum: The day before the test, the microorganisms to be tested were transplanted in their respective media. After 18 hours incubation at 37° C., 0.1 ml of a 1:100 diluted suspension of each strain in broth, were inoculated in 5 ml of medium containing the products under examination at a serial concentration of from 0.009 to 160 mcg/ml.
(§10) Temperature and incubation time: 37° C. for 18 hours.

[17] = test system: Cl. novyi; assay: as above; assay type: cell-based; details: Clostridium novyi, Tryptic soy broth pH 7.3, 37° C., 18 hours
Experimental: as §7, §8, §9, §10

[18] = test system: S.aureus 10B; assay: as above; assay type: cell-based; details: Staphylococcus aureus
Experimental: as §7, §8, §9, §10

[19] = test system: S.aureus SG 511; assay: as above; assay type: cell-based; details: Staphylococcus aureus
Experimental: as §7, §8, §9, §10

[20] = test system: Str.hemolyt 203; assay: as above; assay type: cell-based
Experimental: as §7, §8, §9, §10

[21] = test system: Str.hemolyt 821; assay: as above; assay type: cell-based; details: Tryptic soy broth pH 7.3, 37° C., 18 hours
Experimental: as §7, §8, §9, §10

[22] = 48 h, pH 5.7, read-out: Antimycotic activity (MIC)
[23] = pH 5.7, read-out: Antimycotic activity (MIC)
[24] = Trichophyton rubrum, 2121, 168 h, pH 5.7, read-out: Antimycotic activity (MIC)
[25] = 18 h, pH 7.3, read-out: Antibacterial activity (MIC)
[26] = 10B, 18 h, pH 7.3, read-out: Antibacterial activity (MIC)
[27] = SG511, 18 h, pH 7.3, read-out: Antibacterial activity (MIC)
[28] = Str.hemolyt 203, Tryptic soy broth pH 7.3, 37° C., 18 hours, read-out: Antibacterial activity (MIC)
[29] = T.Verrucosum, Sabouraud liquid pH 5.7, 25° C., 7 days, read-out: Antimycotic activity (MIC)
[30] = C.Neoformans, Sabouraud liquid pH 5.7, 37° C., 48 hours, read-out: Antimycotic activity (MIC)
[31] = T.Mentagroph. 10148, Sabouraud liquid pH 5.7, 25° C., 7 days, read-out: Antimycotic activity (MIC)
[32] = Trichophyton rubrum, 168 h, T.Rubrum 2121, Sabouraud liquid pH 5.7, 25° C., 7 days, read-out: Antimycotic activity (MIC)
[33] = B.subtilis, Tryptic soy broth pH 7.3, 37° C., 18 hours, read-out: Antibacterial activity (MIC)
[34] = S.aureus 10B, Tryptic soy broth pH 7.3, 37° C., 18 hours, read-out: Antibacterial activity (MIC)
[35] = SG511, S.aureus SG 511, Tryptic soy broth pH 7.3, 37° C., 18 hours, read-out: Antibacterial activity (MIC)

| SMILES | LD50 [1] | MIC [2] | MIC [3] | MIC [4] | MIC [5] | MIC [6, 22] | MIC [7] | MIC [8] | MIC [9] | MIC [10] | MIC [11, 23] | MIC [12] | MIC [13] | MIC [14, 24] | MIC [16, 25] | MIC [17] | MIC [18, 26] | MIC [20, 28] | MIC [21] | MIC [15, 29] | other results |
| --- | --- | --- | --- | --- | --- | --- | --- | --- | --- | --- | --- | --- | --- | --- | --- | --- | --- | --- | --- | --- | --- |
| Clc1ccccc1C(c1ccccc1)(c1ccccc1)n1ccnc1 [Clotrimazole, [(imidazol-1-yl)-2-(o-chlorophenyl)-2,2-diphenylmethane]] | 880 mg/kg | 40 µg/mL (≈ 116 µM) | 40 µg/mL (≈ 116 µM) | 10 µg/mL (≈ 29 µM) | 10 µg/mL (≈ 29 µM) | 0.625 µg/mL (≈ 1.81 µM) | 10 µg/mL (≈ 29 µM) | 5 µg/mL (≈ 14.5 µM) | 2.5 µg/mL (≈ 7.25 µM) | 40 µg/mL (≈ 116 µM) | 1.25 µg/mL (≈ 3.62 µM) | 0.078 µg/mL (≈ 0.226 µM) | 0.62 µg/mL (≈ 1.8 µM) | 1.25 µg/mL (≈ 3.62 µM) | 2.5 µg/mL (≈ 7.25 µM) | > 160 µg/mL | 1.25 µg/mL (≈ 3.62 µM) | 5 µg/mL (≈ 14.5 µM) | 2.5 µg/mL (≈ 7.25 µM) |  | MIC [15, 23]: 1.25 µg/mL (≈ 3.62 µM); MIC [19, 27]: 0.312 µg/mL (≈ 0.905 µM) |
| Clc1ccc(COC(Cn2ccnc2)c2ccc(Cl)cc2Cl)c(Cl)c1 (stereo not drawn) [Miconazole, 2,2',4,4'-tetrachloro-α-(N-imidazolyl-methyl)-dibenzyl ether] | 870 mg/kg | 20 µg/mL (≈ 48.1 µM) | 20 µg/mL (≈ 48.1 µM) | 5 µg/mL (≈ 12 µM) | 5 µg/mL (≈ 12 µM) | 0.078 µg/mL (≈ 0.187 µM) | 40 µg/mL (≈ 96.1 µM) | 5 µg/mL (≈ 12 µM) | 5 µg/mL (≈ 12 µM) | 20 µg/mL (≈ 48.1 µM) | 0.625 µg/mL (≈ 1.5 µM) | 0.078 µg/mL (≈ 0.187 µM) | 0.31 µg/mL (≈ 0.745 µM) | 0.312 µg/mL (≈ 0.75 µM) | 0.625 µg/mL (≈ 1.5 µM) | < 1.25 µg/mL | 0.312 µg/mL (≈ 0.75 µM) |  | 1.25 µg/mL (≈ 3 µM) | 2.5 µg/mL (≈ 6.01 µM) | MIC [19, 27]: 0.312 µg/mL (≈ 0.75 µM); MIC [20, 25]: 0.625 µg/mL (≈ 1.5 µM) |
| Clc1ccc(C(Cn2ccnc2)OCc2ccc(Sc3ccccc3)cc2)c(Cl)c1 (stereo not drawn) [R=C6 H5 S, 2,4-Dichloro-4'-phenylthio-α-(N-imidazolyl-methyl)-dibenzyl ether] | 3000 mg/kg | 80 µg/mL (≈ 176 µM) | 80 µg/mL (≈ 176 µM) | 40 µg/mL (≈ 87.8 µM) | 40 µg/mL (≈ 87.8 µM) |  | 10 µg/mL (≈ 22 µM) | 5 µg/mL (≈ 11 µM) | 2.5 µg/mL (≈ 5.49 µM) | 5 µg/mL (≈ 11 µM) |  | 0.156 µg/mL (≈ 0.343 µM) | 1.25 µg/mL (≈ 2.74 µM) |  |  | 5 µg/mL (≈ 11 µM) |  | 0.078 µg/mL (≈ 0.171 µM) | 0.156 µg/mL (≈ 0.343 µM) | 1.25 µg/mL (≈ 2.74 µM) | MIC [6, 30]: 0.156 µg/mL (≈ 0.343 µM); MIC [11, 31]: 0.625 µg/mL (≈ 1.37 µM); MIC [14, 32]: 0.625 µg/mL (≈ 1.37 µM); MIC [16, 33]: 0.078 µg/mL (≈ 0.171 µM); MIC [18, 34]: 0.018 µg/mL (≈ 0.0395 µM); MIC [19, 35]: 0.039 µg/mL (≈ 0.0856 µM) |
| Clc1ccc(C(Cn2ccnc2)OCc2ccc(-c3ccccc3)cc2)c(Cl)c1 (stereo not drawn) [R=C6 H5, 2,4-Dichloro-4'-phenyl-α-(N-imidazolyl-methyl)-dibenzyl ether] | 2400 mg/kg | 10 µg/mL (≈ 23.6 µM) | 20 µg/mL (≈ 47.2 µM) | 5 µg/mL (≈ 11.8 µM) | 5 µg/mL (≈ 11.8 µM) |  | 20 µg/mL (≈ 47.2 µM) | 10 µg/mL (≈ 23.6 µM) | 20 µg/mL (≈ 47.2 µM) | 20 µg/mL (≈ 47.2 µM) |  | 0.156 µg/mL (≈ 0.368 µM) | 1.25 µg/mL (≈ 2.95 µM) |  |  | < 1.25 µg/mL |  | 0.312 µg/mL (≈ 0.737 µM) | 0.156 µg/mL (≈ 0.368 µM) | 10 µg/mL (≈ 23.6 µM) | MIC [6, 30]: 0.312 µg/mL (≈ 0.737 µM); MIC [11, 31]: 0.625 µg/mL (≈ 1.48 µM); MIC [14, 32]: 0.625 µg/mL (≈ 1.48 µM); MIC [16, 33]: 0.156 µg/mL (≈ 0.368 µM); MIC [18, 34]: 0.039 µg/mL (≈ 0.0921 µM); MIC [19, 35]: 0.039 µg/mL (≈ 0.0921 µM) |
